Series [1] has as its target T1, Amine oxidase [flavin-containing] B (Homo sapiens, UniProt P27338).
T1 sequence (P27338 whole entry): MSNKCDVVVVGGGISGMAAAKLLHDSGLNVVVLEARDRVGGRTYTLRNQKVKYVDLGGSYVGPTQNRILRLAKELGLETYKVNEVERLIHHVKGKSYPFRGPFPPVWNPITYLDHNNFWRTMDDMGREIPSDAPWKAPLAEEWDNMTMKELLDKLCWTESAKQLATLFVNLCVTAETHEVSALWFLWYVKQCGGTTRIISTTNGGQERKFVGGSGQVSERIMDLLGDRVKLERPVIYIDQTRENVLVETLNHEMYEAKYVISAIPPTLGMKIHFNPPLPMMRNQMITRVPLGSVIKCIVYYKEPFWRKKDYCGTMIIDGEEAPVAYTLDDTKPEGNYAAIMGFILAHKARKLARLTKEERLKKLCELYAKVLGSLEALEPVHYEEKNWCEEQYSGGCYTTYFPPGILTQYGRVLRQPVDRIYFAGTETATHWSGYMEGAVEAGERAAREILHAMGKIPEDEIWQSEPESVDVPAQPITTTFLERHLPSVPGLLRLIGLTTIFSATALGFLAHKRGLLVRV
Nature of the series: Inhibition of human MAO-B using p-tyramine as substrate incubated for 15 mins by Amplex red and horseradish peroxidase based fluorescence assay.

Series [2] is described as follows: Cytotoxicity against human SH-SY5Y cells assessed as cell viability by measuring lysosomal activity upto 10 uM incubated for 24 hrs by neutral red uptake assay relative to control. The note with it: read-out: Activity. In kind it is toxicity, cell-based.
Series [3] has as its target T2, Amine oxidase [flavin-containing] A (Homo sapiens, UniProt P21397).
T2 sequence (P21397 whole entry): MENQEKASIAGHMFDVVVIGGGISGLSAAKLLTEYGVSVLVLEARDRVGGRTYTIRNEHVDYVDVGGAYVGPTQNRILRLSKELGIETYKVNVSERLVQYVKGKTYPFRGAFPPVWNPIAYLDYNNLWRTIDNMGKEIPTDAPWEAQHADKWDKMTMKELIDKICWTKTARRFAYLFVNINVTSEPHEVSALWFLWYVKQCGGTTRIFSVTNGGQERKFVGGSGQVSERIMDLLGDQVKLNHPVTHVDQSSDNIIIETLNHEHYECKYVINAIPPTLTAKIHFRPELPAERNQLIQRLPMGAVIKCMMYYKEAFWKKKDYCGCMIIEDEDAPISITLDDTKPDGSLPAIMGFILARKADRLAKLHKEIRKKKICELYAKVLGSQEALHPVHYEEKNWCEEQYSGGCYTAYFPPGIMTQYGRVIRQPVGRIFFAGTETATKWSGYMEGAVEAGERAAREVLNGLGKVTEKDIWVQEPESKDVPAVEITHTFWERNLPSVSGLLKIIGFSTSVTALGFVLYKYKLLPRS
Nature of the series: Inhibition of human MAO-A using p-tyramine as substrate at 10 uM incubated for 15 mins by Amplex red and horseradish peroxidase based fluorescence assay. To be noted: 0.25 h.

Series [4] in a line: Cytotoxicity against human SH-SY5Y cells assessed as cell viability by measuring metabolic activity upto 10 uM incubated for 24 hrs by resazurin dye based assay relative to control. In kind it is toxicity. To be noted: read-out: Activity. Background: Resazurin is reduced to fluorescent resorufin, in cell work by metabolically active cells.
For series [5], the species on record is Homo sapiens. The series is described as follows: Selectivity index, ratio of IC50 for human MAO-A to IC50 for human MAO-B.
The target in series [6] is T2, Amine oxidase [flavin-containing] A. Nature of the series: Inhibition of human MAO-A using p-tyramine as substrate incubated for 15 mins by Amplex red and horseradish peroxidase based fluorescence assay.
Series [7] relates to SH-SY5Y. The series is described as follows: Iron(III) chelating activity in FeNTA-treated human SH-SY5Y cells assessed as cell viability by measuring lysosomal activity at 10 uM measured after 24 hrs by neutral red uptake assay (reference value: 66.5 +/- […] %). In kind it is cell-based.
Series [8] has as its target T1, Amine oxidase [flavin-containing] B. The series is described as follows: Inhibition of human MAO-B using p-tyramine as substrate at 10 uM incubated for 15 mins by Amplex red and horseradish peroxidase based fluorescence assay. To be noted: 0.25 h.
Series [9] deals with SH-SY5Y. The series is described as follows: Iron(III) chelating activity in FeNTA-treated human SH-SY5Y cells assessed as cell viability by measuring lysosomal activity at 1 to 10 uM measured after 24 hrs by neutral red uptake assay (reference value: 66.5 +/- […] %). The series is classed as cell-based. The note with it: dose 1-10 µM.
Series [10] concerns the target T3, MAO-A (amine oxidase [flavin-containing] A) (Homo sapiens, UniProt P21397).
T3 sequence (P21397 whole entry): T2 sequence (P21397 whole entry)
The series is described as follows: Inhibition of human MAO-A using p-tyramine as substrate incubated for 15 mins by Amplex red and horseradish peroxidase based fluorescence assay relative to control. The note with it: human MAO-A enzyme, probe p-tyramine.

The structures appear in SMILES notation.

For `O=C(Nc1ccc(Cl)cc1)c1cc(=O)c2cc(O)ccc2o1`, inhibition in [1] was half-maximal at 14.3 nM (IC50). Besides, the viability at 24 h, up to 10 µM in series [2] and in series [4] was ≥ 94.4% throughout. In series [3], the “inhibition (INH)” value is on record as “Not Active”. The Ratio IC50 in series [5] was > 700.
For `O=C(Nc1cccc(Cl)c1)c1cc(=O)c2cc(O)ccc2o1`, the half-maximal inhibitory concentration (IC50) stood at 68.9 nM in [1] and 9000 nM in series [6]. The Ratio IC50 in series [5] was determined as 130.
In series [1], `O=C(Nc1ccccc1)c1cc(=O)c2cc(O)ccc2o1` came in with a half-maximal inhibitory concentration (IC50) of 31.3 nM. For the same compound, the “inhibition (INH)” value in series [3] is “Not Active”. Further, in series [5], the Ratio IC50 was > 319.
As for `Cc1ccc(NC(=O)c2cc(=O)c3cc(O)ccc3o2)cc1C`, the values for the half-maximal inhibitory concentration (IC50) in series [1] and in series [6] were 29.1 nM and 3370 nM, respectively. Besides, the Ratio IC50 in series [5] is 116.
In the case of `O=C(Nc1ccccc1)c1coc2cccc(O)c2c1=O`, the midpoint of inhibition in series [1], the IC50, lay at 13 nM. Also, the viability at 24 h, up to 10 µM in series [2] and in series [4] was ≥ 94.4% each time. For the same compound, in series [3], the “inhibition (INH)” value is reported as “Not Active”. Further, the Activity in [7] came out at 74.4%. Moreover, in series [5], the Ratio IC50 was > 769.
As to `O=C(Nc1ccc(Cl)cc1)c1coc2ccc(O)cc2c1=O`, the IC50 in series [1] amounted to 97.2 nM; in [6] it was 6190 nM. Further, in [5], the Ratio IC50 came to 64.
For the compound `COc1ccc2occ(C(=O)Nc3ccc(O)cc3)c(=O)c2c1`, in series [3], the “inhibition (INH)” value is listed as “Not Active”. For the same compound, in series [5], the Ratio IC50 is > 15.
On to `COc1ccc2oc(C(=O)Nc3ccc(C)c(C)c3)cc(=O)c2c1`, for which the “inhibition (INH)” value in series [8] and in [3] was “Not Active” each time.
Turning to `COc1ccc2occ(C(=O)Nc3ccc(C)c(C)c3)c(=O)c2c1`, the IC50 in series [1] amounted to 28.4 nM. Further, the “inhibition (INH)” value in [3] was “Not Active”. The Ratio IC50 in series [5] was > 352.
Take `COc1ccc2occ(C(=O)Nc3ccc(Cl)cc3)c(=O)c2c1`: the viability at 24 h, up to 10 µM in series [2] and in series [4] was ≥ 94.4% each time. Moreover, the “inhibition (INH)” value in series [3] is reported as “Not Active”. The Ratio IC50 in series [5] was > 970.
With `O=C(Nc1ccc(O)cc1)c1coc2ccc(O)cc2c1=O`, in [1], the concentration for half-maximal inhibition (IC50) came out at 4830 nM. Further, in series [3], the “inhibition (INH)” value was “Not Active”. For the same compound, in [5], the Ratio IC50 is > 2.1.
Turning to `O=C(Nc1cccc(Cl)c1)c1coc2ccc(O)cc2c1=O`, the concentration for half-maximal inhibition (IC50) in series [1] worked out at 29.8 nM. Besides, the “inhibition (INH)” value in series [3] is reported as “Not Active”. For the same compound, in [5], the Ratio IC50 was > 336.
`Cc1ccc(NC(=O)c2coc3cccc(O)c3c2=O)cc1C` yielded a concentration for half-maximal inhibition (IC50) in series [1] of 15.4 nM. The viability at 24 h, up to 10 µM in series [2] and in series [4] was ≥ 94.4% throughout. Besides, the “inhibition (INH)” value in series [3] is on record as “Not Active”. Further, in series [5], the Ratio IC50 is > 649. Further, in series [9], the Activity is 74.4%.
Take `Cc1ccc(NC(=O)c2coc3cccc(O)c3c2=O)cc1`: half-maximal inhibition in series [1] (IC50) required 15.7 nM. Further, the viability at 24 h, up to 10 µM in series [2] and in [4] was ≥ 94.4% in each case. Besides, the “inhibition (INH)” value in series [3] is reported as “Not Active”. The Ratio IC50 in series [5] was > 637. In addition, the Activity in series [9] came to 74.4%.
The compound `COc1ccc2occ(C(=O)Nc3cccc(Cl)c3)c(=O)c2c1` gave an IC50 in series [1] of 6.8 nM. Also, the viability at 24 h, up to 10 µM in series [2] and in series [4] was ≥ 94.4% in each case. For the same compound, the “inhibition (INH)” value in series [3] is reported as “Not Active”. For the same compound, in series [5], the Ratio IC50 was > 1470.
On to `COc1ccc2oc(C(=O)Nc3cccc(Cl)c3)cc(=O)c2c1`, for which the “inhibition (INH)” value in [8] and in series [3] was “Not Active” each time.
`O=C(Nc1cccc(Cl)c1)c1coc2cccc(O)c2c1=O` showed a half-maximal inhibitory concentration (IC50) in series [1] of 25 nM. The viability at 24 h, up to 10 µM in series [2] and in series [4] was ≥ 94.4% throughout. For the same compound, in [3], the “inhibition (INH)” value is given as “Not Active”. Besides, the Ratio IC50 in [5] was > 400. In [9], the Activity worked out at 74.4%.
As to `COc1ccc2occ(C(=O)Nc3ccc(C)cc3)c(=O)c2c1`, in [3], the “inhibition (INH)” value is recorded as “Not Active”. Moreover, in series [5], the Ratio IC50 was > 48.
Take `Cc1ccc(NC(=O)c2coc3ccc(O)cc3c2=O)cc1`: it took 344 nM to reach half-maximal inhibition in series [1] (IC50). Further, the “inhibition (INH)” value in series [3] is listed as “Not Active”. For the same compound, the Ratio IC50 in series [5] was > 29.
Turning to `COc1ccc2oc(C(=O)Nc3ccc(Cl)cc3)cc(=O)c2c1`, the “inhibition (INH)” value in series [8] and in series [3] was “Not Active” throughout.
In the case of `O=C(Nc1ccccc1)c1coc2ccc(O)cc2c1=O`, the midpoint of inhibition in [1], the IC50, lay at 240 nM. The “inhibition (INH)” value in series [3] is on record as “Not Active”. The Ratio IC50 in series [5] was > 42.
Take `O=C(Nc1ccc(Cl)cc1)c1coc2cccc(O)c2c1=O`: in [1], the IC50 amounted to 8.3 nM. In addition, the viability at 24 h, up to 10 µM in series [2] and in series [4] was ≥ 94.4% each time. Further, in [3], the “inhibition (INH)” value was “Not Active”. For the same compound, the Ratio IC50 in series [5] was > 1200. Also, the Activity in [9] was determined as 74.4%.
`O=C(Nc1ccc(O)cc1)c1coc2cccc(O)c2c1=O` yielded a 50% inhibitory concentration (IC50) in [1] of 598 nM. For the same compound, in series [3], the “inhibition (INH)” value is reported as “Not Active”. In addition, in series [5], the Ratio IC50 is > 17.
For `COc1ccc2oc(C(=O)Nc3ccc(O)cc3)cc(=O)c2c1`, the “inhibition (INH)” value in series [8] and in series [3] was “Not Active” each time.
For the compound `COc1ccc2oc(C(=O)Nc3ccc(C)cc3)cc(=O)c2c1`, the 50% inhibitory concentration (IC50) in series [6] worked out at 607 nM. In series [8], the “inhibition (INH)” value is given as “Not Active”. Also, the Ratio IC50 in series [5] is > 0.061.
In [10], `C[C@H](NCc1ccc(OCc2cccc(F)c2)cc1)C(N)=O` [SAFINAMIDE] came in with an inhibition at 0.25 h of 23.7%.
In the case of `COc1ccc2oc(C(=O)Nc3ccccc3)cc(=O)c2c1`, the “inhibition (INH)” value in [8] and in series [3] was “Not Active” in each case.
On to `O=C(Nc1ccc(O)cc1)c1cc(=O)c2cc(O)ccc2o1`, for which the IC50 in series [1] came out at 1030 nM. Besides, in series [3], the “inhibition (INH)” value was “Not Active”. Further, in series [5], the Ratio IC50 is > 9.7.
Take `Cc1ccc(NC(=O)c2cc(=O)c3cc(O)ccc3o2)cc1`: the IC50 in series [1] was found to be 55.1 nM. Besides, the “inhibition (INH)” value in [3] was “Not Active”. The Ratio IC50 in series [5] was > 181.
For `COc1ccc2occ(C(=O)Nc3ccccc3)c(=O)c2c1`, the “inhibition (INH)” value in series [3] is “Not Active”. Further, the Ratio IC50 in series [5] was > 239.
On to `Cc1ccc(NC(=O)c2coc3ccc(O)cc3c2=O)cc1C`, for which the IC50 in [1] is 262 nM. Further, in series [3], the “inhibition (INH)” value is listed as “Not Active”. Besides, the Ratio IC50 in series [5] is > 38.

In general, IC50 refers to the concentration that gives 50% inhibition. Read a low IC50 as inhibition by little substance. What is called inhibition is the change of the read-out against control, counted positive when it falls. A low value points to a response near the control.

These data come from ChEMBL document CHEMBL5352389, “Design and synthesis of chromone-based monoamine oxidase B inhibitors with improved drug-like properties” (Eur J Med Chem, 2022).
